Laboratory results from patent US20230150932A1, “COMPOSITIONS FOR STABILIZING AN ISOTHIOCYANATE” (VIO CHEMICALS AG, priority 2020, published 2023).

How the values were obtained:
[1] = Stability study by HPLC, storage under Conditions A (bench, 20-25° C.); format: physicochemical; conditions: Conditions A 20-25° C.; for RRT 0.96: impurity; for RRT 0.76: thiourea degradation impurity
Description: (§1) The storage conditions studied in the present invention are of three types:
(§2) In all three above types of conditions, the storage media is a simple dark glass vial or round-bottomed flask. Each sample is blown with Argon before securing the cap. No further treatment regarding the atmosphere is performed. The vial is capped and secured by use of a commercially available appropriate means for sealing the cap, e.g. Parafilm. The storage media is not restrictive with respect to the present invention.
(§3) The Sulforaphane formulations were analyzed with HPLC (PDA/UV at 240 nm) using standards for identification and quantification purpose.
(§4) Take 1 mL of H3PO4 into a 1 L volumetric flask containing about 500 mL of water, dilute to the volume with water and mix well/Acetonitrile.
(§5) Transfer accurately about 20 mg of sample in to a 20 mL clean and dry volumetric flask. Dilute to the volume with diluent.
(§6) Sulphoraphane retention time is about 20 mins
(§7) Conditions A: bench (20-25° C.) Conditions B: fridge, 2-8° C. Conditions C: fridge-freezer, (−15) ° C.

[2] = Stability study by HPLC, storage under Conditions C (fridge-freezer, -15° C.); format: physicochemical; conditions: Conditions C -15° C.; for RRT 0.96: impurity; for RRT 0.76: thiourea degradation impurity
Description: as §1, §2, §3, §4, §5, §6, §7

[3] = left on bench for 6 months; HPLC
Source text: In order to determine the structure of the major degradation impurity found in the present study (RRT 0.76) a sample of synthetically produced Sulforaphane was left on bench for 6 months.

[4] = diluted in water, heated at 80° C. for 24 hrs; HPLC

Sulfone ([1]; 1 month): 1.31
Sulforaphane ([1]; 1 month): 36.35
RRT 0.96 ([1]; 1 month): 3.88
RRT 0.76 ([1]; 1 month): 29.16
Sulfone ([1]; 2 months): 0.84
Sulforaphane ([1]; 2 months): 24.51
RRT 0.96 ([1]; 2 months): 3.95
RRT 0.76 ([1]; 2 months): 34.37
Sulfone ([1]; 3 months): 0.78
Sulforaphane ([1]; 3 months): 19.98
RRT 0.96 ([1]; 3 months): 4.11
RRT 0.76 ([1]; 3 months): 38.38
Sulfone ([1]; 7 days): 2.32
Sulforaphane ([1]; 7 days): 65.48
RRT 0.96 ([1]; 7 days): 2.62
RRT 0.76 ([1]; 7 days): 15.87
Sulfone ([1]; 15 days): 1.92
Sulforaphane ([1]; 15 days): 53.28
RRT 0.96 ([1]; 15 days): 3.20
RRT 0.76 ([1]; 15 days): 21.61
Sulfone ([1]; zero time): 3.40
Sulforaphane ([1]; zero time): 94.74
RRT 0.96 ([1]; zero time): 0.15
RRT 0.76 ([1]; zero time): 0.01
Sulfone ([2]; 1 month): 3.4
Sulforaphane ([2]; 1 month): 94.27
RRT 0.96 ([2]; 1 month): 0.23
RRT 0.76 ([2]; 1 month): 0.25
Sulfone ([2]; 2 months): 3.42
Sulforaphane ([2]; 2 months): 94.43
RRT 0.96 ([2]; 2 months): 0.25
RRT 0.76 ([2]; 2 months): 0.27
Sulfone ([2]; 3 months): 3.44
Sulforaphane ([2]; 3 months): 94.51
RRT 0.96 ([2]; 3 months): 0.51
RRT 0.76 ([2]; 3 months): 0.23
Sulfone ([2]; 7 days): 3.38
Sulforaphane ([2]; 7 days): 95.21
RRT 0.96 ([2]; 7 days): 0.15
Sulforaphane ([2]; 15 days): 97.23
RRT 0.96 ([2]; 15 days): 0.03
RRT 0.76 ([2]; 15 days): 0.62
Sulfone ([2]; zero time): 3.40
Sulforaphane ([2]; zero time): 94.74
RRT 0.96 ([2]; zero time): 0.15
RRT 0.76 ([2]; zero time): 0.01
percentage of impurity RRT 0.76 [3]: about 74.8%
impurity RRT 0.76 detected (chromatographic purity) [4]: more than 93%
SMILES: C[S+]([O-])CCCCN=C=S (stereo not drawn) [Comparative Example 3, 4-(methylsulfinyl)butylisothiocyanate]
